Results published in US20110165173A1, “THERAPEUTIC AGENT AND DETECTION REAGENT FOR ARTERIOSCLEROTIC DISEASE WHICH TARGETS FOR SALUSIN” (PROTEINEXPRESS CO., LTD., priority 2007, published 2011).

How the values were obtained:
[1] = test system: scavenger receptor class A (SR-A) activity; assay: Scavenger receptor class A (SR-A) activity: [125I]AcLDL association and degradation assays; assay type: cell-based, human; conditions: 0.6 nM; 5 to 10 μg/mL [125I]AcLDL, 18 hours
Source text: A scavenger receptor is a lipoprotein receptor expressed on macrophages. It recognizes modified LDL such as oxidized LDL or AcLDL, leading to endocytosis. A ligand of such receptor that has been incorporated into a cell is degraded in the lysosome. Such scavenger receptor plays a very important role on formation of foam cells from macrophages. Known examples of a scavenger receptor include a scavenger receptor class A (SR-A), CD36, lectin-like oxidized LDL receptor-1 (LOX-1), and CD68 [Greaves D R et al., J Lipid Res. 2005; 46: 11-20.]. Oxidized LDL can bind to the four types of the above scavenger receptors. However, the only scavenger receptor to which AcLDL binds is SR-A. In this experiment, AcLDL, which is a representative example of modified LDL, was used as a ligand and the activity of SR-A serving an exclusive scavenger receptor capable of recognizing AcLDL was assayed (FIG. 9).
Peripheral blood human monocytes (4×10^6cells/6 cm dish) were cultured for 7 days in an RPMI-1640 medium (2 mL) containing 10% human serum so as to differentiate into macrophages. At such time, 0.6 nM salusin-α or salusin-β was added during culture to examine effects of salusin-α and salusin-β on the endocytosis activity (SR-A activity) of [^125I]AcLDL. On Day 7, the medium was changed. An adequate amount of medium was added to [^125I]AcLDL (5 to 10 μg/mL) and 0.6 nM salusin-α or salusin-β so as to result in a total amount of 2 mL. The cells were further cultured for 18 hours.
The cells were washed once with PBS containing 3% BSA and then washed twice with PBS. 0.1 N NaOH (1 mL) was added thereto and the resultant was allowed to stand at room temperature for 30 minutes. The cells were recovered into a polystyrene tube (12×75 mm, Fisher Scientific Company), further washed with 0.1 N NaOH (1 mL), and recovered again. The total amount of the cell extraction solution was assayed using a y counter. The protein concentration of a portion thereof was determined by the BCA method (Pierce). The cell association (μg/mg cell protein) of [^125I]AcLDL was calculated by dividing the radioactivity (cpm) of the cell extraction solution by the specific activity (cpm/μg) of [^125I]AcLDL and the cell protein amount (mg) per dish [Miyazaki A et al., J Biol Chem. 1994; 269: 5264-5269].
[^125I]AcLDL incorporated by macrophages via scavenger receptors are degraded in the lysosome. […]
A portion (750 μL) was collected from each culture supernatant into a polystyrene tube (12×75 mm, Fisher Scientific Company). […] In addition, the peptide from [^125I]AcLDL that had been processed by cells was exclusively detected in the trichloroacetic acid soluble fraction. […]

apoE-deficient mice = assay: Arteriosclerotic lesions of aorta in apoE-deficient mice under continuous subcutaneous administration (oil red O staining); assay type: in vivo; conditions: 0.6 nmol/kg/h continuous subcutaneous
Procedure: Effects of continuous administration of salusin-α and salusin-β on arteriosclerosis were examined with the use of apoE-deficient mice as arteriosclerosis animal models. Herein, antiserum effects of salusin-α or salusin-β were also examined. In addition to examination of arteriosclerotic lesions, foaming of macrophages, which is important for formation of arteriosclerosis primary lesions, was focused on and cholesterol ester accumulation caused by oxidized LDL was assayed. Expression analysis was carried out for scavenger receptors (CD36 and SR-A) capable of recognizing oxidized LDL, an intracellular cholesterol esterification enzyme (acyl-CoA) (cholesterol acyltransferase 1 (ACAT1)), and ATP-binding cassette transporter A1 (ABCA1), ABCG1, and SR-BI, which are involved in the mechanism of extracellular transportation of excessive intracellular free cholesterol (cholesterol efflux).
The above animal experiments were carried out in accordance with the experimental practice guidelines established by Showa University (Japan). All the apoE-deficient mice used for this study were purchased from the Jackson Laboratory (Bar Harbor, Me., U.S.A.).
13-week-old male apoE-deficient mice (72 mice) were divided into the following 6 groups: (i) physiological salt saline (control); (ii) salusin-α (0.6 nmol/kg/h); (iii) salusin-β (0.6 nmol/kg/h); (iv) salusin-α (0.6 nmol/kg/h)+anti-salusin-α serum (1.4 μg/kg/h); (v) salusin-β (0.6 nmol/kg/h)+anti-salusin-β serum (1.4 μg/kg/h); and (vi) anti-salusin-β serum (1.4 μg/kg/h). The mice were subjected to continuous subcutaneous administration with the use of an osmotic mini-pump for 4 to 8 weeks. The osmotic mini-pump and the solution contained therein were changed every week.
Mice ingesting a normal diet were subjected to experiments. The following parameters were assayed.
Each collected aorta was cut in the longitudinal direction, followed by oil red O staining for examination of the surface area of each atherosclerosis lesion with lipid pigmentation. Adobe Photoshop (Adobe System Inc., San Jose, Calif., U.S.A.) was used for identification of arteriosclerotic lesions, followed by analysis using NIH Scion Image (Scion Corp., Frederick, Md., U.S.A.) for quantification of the surface area of each lesion. In addition, cross-sections of the vicinity of the aorta (immediately below the aortic valve) were prepared, followed by oil red O staining for detailed analysis of arteriosclerotic lesions.

Row | Substance | [125I]AcLDL association assay vs control cells [1] | [125I]AcLDL degradation assay vs control cells [1] | arteriosclerotic lesion surface area (apoE-deficient mice; eight weeks) | plaque formation (apoE-deficient mice; eight weeks) | proximal aorta cross-sections, oil red O staining, compared with control group (apoE-deficient mice; four weeks) | mean arteriosclerotic lesion surface area of the aortic arch relative to control group (apoE-deficient mice; four weeks, P<0.005)
1 | salusin-α: peptide (SEQ ID NO: 1) comprising 28 amino acid residues, generated by processing from preprosalusin (SGALPPAPAAPRPALRAQRAGPAGPGAK; listed as Homo sapiens) | no significant changes | no significant changes | reduced to less than half | obvious plaque formation was not observed |  | 
2 | salusin-β: peptide (SEQ ID NO: 3) comprising 20 amino acid residues, generated by processing from preprosalusin (AIFIFIRWLLKLGHHGRAPP; listed as Homo sapiens) [reference compound] | no significant changes | no significant changes |  |  | formation of atheroma stained red with oil red O and thickening of the blood vessel wall were observed | approximately 2.5 times
